# Like-named read-outs stand apart in the source and are kept apart here.
# Target: T1, IRAK4 (Homo sapiens, UniProt Q9NWZ3)
# T1 construct: Degradation of IRAK4 in OCI-LY10 was quantitatively measured using Meso Scale Discovery technology; endogenous in cells; host or cells: OCI-LY10
# T1 sequence (Q9NWZ3 1-460): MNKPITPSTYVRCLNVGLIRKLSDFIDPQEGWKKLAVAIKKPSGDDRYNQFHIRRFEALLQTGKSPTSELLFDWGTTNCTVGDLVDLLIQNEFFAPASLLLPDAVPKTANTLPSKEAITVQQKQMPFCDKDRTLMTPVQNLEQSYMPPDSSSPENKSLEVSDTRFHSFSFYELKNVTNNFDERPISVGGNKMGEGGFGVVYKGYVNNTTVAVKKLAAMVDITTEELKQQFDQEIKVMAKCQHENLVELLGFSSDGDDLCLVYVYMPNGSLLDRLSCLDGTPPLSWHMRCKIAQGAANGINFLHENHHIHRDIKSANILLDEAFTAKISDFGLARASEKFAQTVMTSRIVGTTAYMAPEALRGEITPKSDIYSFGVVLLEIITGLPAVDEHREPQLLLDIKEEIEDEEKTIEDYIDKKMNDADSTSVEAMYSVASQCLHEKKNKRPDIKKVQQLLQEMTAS
# Test: IRAK4 MSD Degradation in OCI-LY10
# Type: cell-based
# Conditions: OCI-LY10 cells, MSD
# Procedure, shortened: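 DC50, from a three-parameter logistic fit and reported as letter bins A (<0.01 μM), B, C, D (>0.2 μM or not tested), reflects IRAK4 loss measured by MSD electrochemiluminescence in OCI-LY10 lysates. Treatment: 8 doses, 1:3 steps, top 1 to 10 μM, 4 to 24 h, 37 °C.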
# [1] = 4 hrs incubation, read-out: IRAK4 degradation in OCI-LY10 at 4 hrs: DC50
# [2] = 24 hrs incubation, read-out: IRAK4 degradation in OCI-LY10 at 24 hrs: DC50
Compound,DC50 [1],DC50 [2]
CN(C[C@H]1CC[C@H](n2cc(NC(=O)c3cnn4cccnc34)c(C(F)F)n2)CC1)C1CCN(c2cccc3c2n(C)c(=O)n3C2CCC(=O)NC2=O)CC1O (stereo partly shown) [I-486],> 200 nM,> 200 nM
CN(C[C@]1(O)CC[C@@H](n2cc(NC(=O)c3cnn4cccnc34)c(C(F)F)n2)CC1)C1CCN(c2cccc3c2n(C)c(=O)n3C2CCC(=O)NC2=O)CC1 (stereo partly shown) [I-487],> 200 nM,> 200 nM
Cn1c(=O)n(C2CCC(=O)NC2=O)c2cccc(C3CCN(C[C@H]4CC[C@H](n5cc6cc(NC(=O)c7cccc(C(F)(F)F)n7)ncc6n5)CC4)CC3(F)F)c21 (stereo partly shown) [I-488],> 200 nM,> 200 nM
Cn1c(=O)n(C2CCC(=O)NC2=O)c2cccc(C3CCN(C[C@H]4CC[C@H](n5cc6cc(NC(=O)c7cccc(C(F)(F)F)n7)ccc6n5)CC4)CC3(F)F)c21 (stereo partly shown) [I-489],> 200 nM,> 200 nM
CO[C@H]1CN(c2cccc3c2n(C)c(=O)n3C2CCC(=O)NC2=O)C[C@H]1N(C)C[C@H]1CC[C@H](n2cc3cc(NC(=O)c4cccc(C(F)(F)F)n4)ccc3n2)CC1 (stereo partly shown) [I-493],> 200 nM,> 200 nM
CO[C@@H]1CN(c2cccc3c2n(C)c(=O)n3C2CCC(=O)NC2=O)C[C@H]1N(C)C[C@H]1CC[C@H](n2cc3cc(NC(=O)c4cccc(C(F)(F)F)n4)ccc3n2)CC1 (stereo partly shown) [I-494],> 200 nM,> 200 nM
CO[C@@H]1CN(c2cccc3c2n(C)c(=O)n3C2CCC(=O)NC2=O)CC[C@H]1N(C)C[C@H]1CC[C@H](n2cc3cc(NC(=O)c4cccc(C(F)(F)F)n4)ccc3n2)CC1 (stereo partly shown) [I-495],> 200 nM,> 200 nM
CO[C@H]1CN(c2cccc3c2n(C)c(=O)n3C2CCC(=O)NC2=O)CC[C@@H]1N(C)C[C@H]1CC[C@H](n2cc3cc(NC(=O)c4cccc(C(F)(F)F)n4)ccc3n2)CC1 (stereo partly shown) [I-496],> 200 nM,> 200 nM
CO[C@H]1CN(c2cccc3c2n(C)c(=O)n3C2CCC(=O)NC2=O)CC[C@H]1N(C)C[C@H]1CC[C@H](n2cc3cc(NC(=O)c4cccc(C(F)(F)F)n4)ccc3n2)CC1 (stereo partly shown) [I-498],> 200 nM,> 200 nM
Cn1c(=O)n(C2CCC(=O)NC2=O)c2cccc(N3CC4(C3)N(C[C@H]3CC[C@H](n5cc6cc(NC(=O)c7cccc(C(F)(F)F)n7)ccc6n5)CC3)CC4(F)F)c21 (stereo partly shown) [I-500],> 200 nM,> 200 nM
Cn1c(=O)n(C2CCC(=O)NC2=O)c2cccc(C#CCN3CC4(C3)N(C[C@H]3CC[C@H](n5cc(NC(=O)c6cnn7ccc(N8CCCC8)nc67)c(C(F)F)n5)CC3)CC4(F)F)c21 (stereo partly shown) [I-501],> 200 nM,> 200 nM
CN(CC[C@H]1CC[C@H](n2cc(NC(=O)c3cnn4cccnc34)c(C(F)F)n2)CC1)C1CCN(c2cccc3c2n(C)c(=O)n3C2CCC(=O)NC2=O)CC1(F)F (stereo partly shown) [I-503],> 200 nM,> 200 nM
CN(C[C@H]1CC[C@H](n2cc(NC(=O)c3cnn4ccc(N5CC(O)C5)nc34)c(C(F)F)n2)CC1)C1CCN(c2cccc3c2n(C)c(=O)n3C2CCC(=O)NC2=O)CC1(F)F (stereo partly shown) [I-508],> 200 nM,> 200 nM
CN(C[C@H]1CC[C@H](n2cc(NC(=O)c3cnn4ccc(N5CC6(COC6)C5)nc34)c(C(F)F)n2)CC1)C1CCN(c2cccc3c2n(C)c(=O)n3C2CCC(=O)NC2=O)CC1(F)F (stereo partly shown) [I-509],> 200 nM,10 to 100 nM
CN(C[C@H]1CC[C@H](n2cc(NC(=O)c3cnn4ccc(N5CC6(CCCOC6)C5)nc34)c(C(F)F)n2)CC1)C1CCN(c2cccc3c2n(C)c(=O)n3C2CCC(=O)NC2=O)CC1(F)F (stereo partly shown) [I-510],> 200 nM,10 to 100 nM
CN(C[C@H]1CC[C@H](n2cc(NC(=O)c3cnn4ccc(N5CC6(CCOCC6)C5)nc34)c(C(F)F)n2)CC1)C1CCN(c2cccc3c2n(C)c(=O)n3C2CCC(=O)NC2=O)CC1(F)F (stereo partly shown) [I-511],> 200 nM,10 to 100 nM
CN(C[C@H]1CC[C@H](n2cc(NC(=O)c3cnn4ccc(N5CCCC56CC6)nc34)c(C(F)F)n2)CC1)C1CCN(c2cccc3c2n(C)c(=O)n3C2CCC(=O)NC2=O)CC1(F)F (stereo partly shown) [I-514],> 200 nM,> 200 nM
CN(C[C@H]1CC[C@H](n2cc(NC(=O)c3cnn4ccc(N5CCCCC5)nc34)c(C(F)F)n2)CC1)C1CCN(c2cccc3c2n(C)c(=O)n3C2CCC(=O)NC2=O)CC1(F)F (stereo partly shown) [I-515],> 200 nM,10 to 100 nM
CN(C[C@H]1CC[C@H](n2cc(NC(=O)c3cnn4ccc(N5CCCC(C)(C)C5)nc34)c(C(F)F)n2)CC1)C1CCN(c2cccc3c2n(C)c(=O)n3C2CCC(=O)NC2=O)CC1(F)F (stereo partly shown) [I-517],> 200 nM,> 200 nM
CN(C[C@H]1CC[C@H](n2cc(NC(=O)c3cnn4ccc(N5CCC(F)(F)CC5)nc34)c(C(F)F)n2)CC1)C1CCN(c2cccc3c2n(C)c(=O)n3C2CCC(=O)NC2=O)CC1(F)F (stereo partly shown) [I-519],> 200 nM,> 200 nM
CC1CCN(c2ccn3ncc(C(=O)Nc4cn([C@H]5CC[C@H](CN(C)C6CCN(c7cccc8c7n(C)c(=O)n8C7CCC(=O)NC7=O)CC6(F)F)CC5)nc4C(F)F)c3n2)CC1 (stereo partly shown) [I-520],> 200 nM,> 200 nM

# The next lines start with the values.
DC50 [1],DC50 [2],Compound
> 200 nM,> 200 nM,CN(C[C@H]1CC[C@H](n2cc(NC(=O)c3cnn4cccnc34)c(C(F)F)n2)CC1)C1C(F)CN(c2cccc3c2n(C)c(=O)n3C2CCC(=O)NC2=O)CC1F (stereo partly shown) [I-483]
> 200 nM,10 to 100 nM,CN(C)c1ccn2ncc(C(=O)Nc3cn([C@H]4CC[C@H](CN(C)C5CCN(c6cccc7c6n(C)c(=O)n7C6CCC(=O)NC6=O)CC5(F)F)CC4)nc3C(F)F)c2n1 (stereo partly shown) [I-484]
> 200 nM,> 200 nM,Cn1c(=O)n(C2CCC(=O)NC2=O)c2cccc(C3CCN(C[C@H]4CC[C@H](n5cc6cc(NC(=O)c7cccc(C(F)(F)F)n7)c(C#N)cc6n5)CC4)CC3(F)F)c21 (stereo partly shown) [I-490]
> 200 nM,> 200 nM,CO[C@@H]1CN(c2cccc3c2n(C)c(=O)n3C2CCC(=O)NC2=O)C[C@@H]1N(C)C[C@H]1CC[C@H](n2cc3cc(NC(=O)c4cccc(C(F)(F)F)n4)ccc3n2)CC1 (stereo partly shown) [I-491]
> 200 nM,> 200 nM,CO[C@H]1CN(c2cccc3c2n(C)c(=O)n3C2CCC(=O)NC2=O)C[C@@H]1N(C)C[C@H]1CC[C@H](n2cc3cc(NC(=O)c4cccc(C(F)(F)F)n4)ccc3n2)CC1 (stereo partly shown) [I-492]
> 200 nM,> 200 nM,CO[C@@H]1CN(c2cccc3c2n(C)c(=O)n3C2CCC(=O)NC2=O)CC[C@@H]1N(C)C[C@H]1CC[C@H](n2cc3cc(NC(=O)c4cccc(C(F)(F)F)n4)ccc3n2)CC1 (stereo partly shown) [I-497]
> 200 nM,> 200 nM,Cn1c(=O)n(C2CCC(=O)NC2=O)c2cccc(N3CC(F)(F)C34CN(C[C@H]3CC[C@H](n5cc6cc(NC(=O)c7cccc(C(F)(F)F)n7)ccc6n5)CC3)C4)c21 (stereo partly shown) [I-499]
> 200 nM,> 200 nM,CN(C[C@H]1CC[C@H](n2cc(NC(=O)c3cnn4ccc(N5C[C@H]6C[C@@H]5CO6)nc34)c(C(F)F)n2)CC1)C1CCN(c2cccc3c2n(C)c(=O)n3C2CCC(=O)NC2=O)CC1(F)F (stereo partly shown) [I-502]
> 200 nM,> 200 nM,CN(C[C@H]1CC[C@H](n2cc(NC(=O)c3cnn4ccc(N5CCC5)nc34)c(C(F)F)n2)CC1)C1CCN(c2cccc3c2n(C)c(=O)n3C2CCC(=O)NC2=O)CC1(F)F (stereo partly shown) [I-504]
> 200 nM,> 200 nM,CN(C[C@H]1CC[C@H](n2cc(NC(=O)c3cnn4ccc(N5CC(C)(C)C5)nc34)c(C(F)F)n2)CC1)C1CCN(c2cccc3c2n(C)c(=O)n3C2CCC(=O)NC2=O)CC1(F)F (stereo partly shown) [I-505]
> 200 nM,> 200 nM,CN(C[C@H]1CC[C@H](n2cc(NC(=O)c3cnn4ccc(N5CC6(CC6)C5)nc34)c(C(F)F)n2)CC1)C1CCN(c2cccc3c2n(C)c(=O)n3C2CCC(=O)NC2=O)CC1(F)F (stereo partly shown) [I-506]
> 200 nM,> 200 nM,CN(C[C@H]1CC[C@H](n2cc(NC(=O)c3cnn4ccc(N5CC(F)(F)C5)nc34)c(C(F)F)n2)CC1)C1CCN(c2cccc3c2n(C)c(=O)n3C2CCC(=O)NC2=O)CC1(F)F (stereo partly shown) [I-507]
> 200 nM,10 to 100 nM,CN(C[C@H]1CC[C@H](n2cc(NC(=O)c3cnn4ccc(N5CCCC5)nc34)c(C(F)F)n2)CC1)C1CCN(c2cccc3c2n(C)c(=O)n3C2CCC(=O)NC2=O)CC1(F)F (stereo partly shown) [I-512]
> 200 nM,> 200 nM,CN(C[C@H]1CC[C@H](n2cc(NC(=O)c3cnn4ccc(N5CCCC5(C)C)nc34)c(C(F)F)n2)CC1)C1CCN(c2cccc3c2n(C)c(=O)n3C2CCC(=O)NC2=O)CC1(F)F (stereo partly shown) [I-513]
> 200 nM,> 200 nM,CN(C[C@H]1CC[C@H](n2cc(NC(=O)c3cnn4ccc(N5CCC(C)(C)CC5)nc34)c(C(F)F)n2)CC1)C1CCN(c2cccc3c2n(C)c(=O)n3C2CCC(=O)NC2=O)CC1(F)F (stereo partly shown) [I-516]
> 200 nM,> 200 nM,CN(C[C@H]1CC[C@H](n2cc(NC(=O)c3cnn4ccc(N5CCCCC5(C)C)nc34)c(C(F)F)n2)CC1)C1CCN(c2cccc3c2n(C)c(=O)n3C2CCC(=O)NC2=O)CC1(F)F (stereo partly shown) [I-518]
> 200 nM,> 200 nM,CN(C[C@H]1CC[C@H](n2cc(NC(=O)c3cnn4ccc(N5CCC6(CC5)CC6)nc34)c(C(F)F)n2)CC1)C1CCN(c2cccc3c2n(C)c(=O)n3C2CCC(=O)NC2=O)CC1(F)F (stereo partly shown) [I-521]

# Reference: patent US12091411B2, “IRAK degraders and uses thereof” (Kymera Therapeutics, Inc., priority 2022, dated 2024)
